Experiments:
[1] = test system: platelets; assay: thromboelastography (TEG) of platelet concentrate; assay type: cell-based; conditions: 2.4 mg Argatroban in 350 ml of platelets; straight line on the thromboelastogram
Method: In one experiment, platelet concentrates obtained by the buffy coat method were used for the study. Integrilin (Eptifibatide), a GPIIb/IIIa inhibitor, and Argabotran, a synthetic thrombin inhibitor, were added to platelet units at three times the therapeutic concentrations (i.e., 48 micrograms of Integrilin and 2.4 mg of Argatroban in 350 ml of platelets). Removal of the inhibitors was initiated by diafiltration. 15 ml of the platelet concentrate was diafiltered against 60 ml of a solution containing 20% fresh frozen plasma in a commercially used platelet storage solution (T-Sol). The samples were stored overnight and platelet functionality was measured on Day 2, by Thromboelastography (TEG) and using standard agonists such as TRAP and collagen.
In another experiment, Integrilin and Argabotran were added to platelet units at three times the therapeutic loading concentrations (i.e., 48 micrograms for Integrilin and 2.4 mg for Argatroban in 350 ml of platelets). Prior to the addition of the inhibitors, baseline data of platelet functionality was obtained. These baseline data included thromboelastography, which assesses overall platelet function and clot strength, as well as the TRAP test and the collagen test, which are additional markers of platelet functionality. […]

[2] = biological target: factor Xa (Homo sapiens, UniProt P00742); conditions: cited from earlier work
Chain of factor Xa (P00742 235-488 limits assumed): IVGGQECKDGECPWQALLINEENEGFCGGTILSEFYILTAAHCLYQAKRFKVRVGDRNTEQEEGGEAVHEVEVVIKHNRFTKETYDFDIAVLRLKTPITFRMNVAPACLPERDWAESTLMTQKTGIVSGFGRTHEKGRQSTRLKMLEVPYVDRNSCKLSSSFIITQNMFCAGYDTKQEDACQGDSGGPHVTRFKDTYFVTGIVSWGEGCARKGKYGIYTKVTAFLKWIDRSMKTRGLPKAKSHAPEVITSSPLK
Chain of factor Xa (P00742 41-179 partner limits assumed): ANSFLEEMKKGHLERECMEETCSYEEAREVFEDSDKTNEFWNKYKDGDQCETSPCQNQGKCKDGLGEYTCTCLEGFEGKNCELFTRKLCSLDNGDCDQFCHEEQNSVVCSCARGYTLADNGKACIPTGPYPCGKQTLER

[3] = test system: PT and αPTT; conditions: more sensitive to the αPTT; cited from earlier work

Question: With `CC1CNc2c(cccc2S(=O)(=O)N[C@@H](CCCNC(=N)N)C(=O)N2CC[C@@H](C)C[C@@H]2C(=O)O)C1` (stereo partly shown) [Argatroban] as the molecule, how does the “effect on activation of platelets on the thromboelastogram” value [1] read?
Answer: Its value is “completely blocks the activation of platelets”.

Question: Which “mode of factor Xa inhibition” value [2] does the source give for `CC(=N)N1CC[C@H](Oc2ccc([C@H](Cc3ccc4ccc(C(=N)N)cc4c3)C(=O)O)cc2)C1` [DX-9065a] here?
Answer: The value was “competitive manner”.

Question: For `COc1ccc2ccc(S(=O)(=O)N(C)[C@H]3CCN(Cc4csc(C(=N)N)c4)C3=O)cc2c1` [RPR-120844], which “effect on PT and αPTT” value [3] is on record?
Answer: The value was “prolongs the PT and αPTT in a concentration-dependent manner”.

Question: And the “mode of factor Xa inhibition” value [2]?
Answer: The value was “fast binding, reversible and competitive inhibitor”.

Reference: patent US20120134974A1, “METHODS FOR REMOVING PLASMA” (BIOVEC TRANSFUSION, LLC, priority 2010, published 2012)
